This passage reports melting point and IC50 results from patent US11844776B2, “Composition for treatment and/or prevention of peripheral nerve disorder” (OSAKA CITY UNIVERSITY, priority 2016, dated 2023).

Data set [1] concerns the target m-calpain (derived from porcine kidney) (Sus scrofa, UniProt P43367). Briefly: Measurement of inhibitory activity against m-calpain. It counts as biochemical. Particulars: casein substrate, pH 7.4, 30° C. for 60 minutes; read-out: Enzyme inhibitory activity m-Calpain (IC50).
Protocol: More specifically, 200 μL of a reaction solution containing 0.5 mg/mL casein, 50 mM Tris-HCl buffer (pH 7.4), 20 mM dithiothreitol and 1.0 nmol μ-calpain (derived from human red blood cells, Cosmo Bio Co., Ltd.) or m-calpain (derived from porcine kidney, Cosmo Bio Co., Ltd.) was added to individual 2.5 μL portions of DMSO solution containing a varying concentration of a test sample in a 96-well plate. Then, 50 μL of 20 mM aqueous calcium chloride was added thereto, and reaction was performed at 30° C. for 60 minutes. 100 μL of the reaction solution was transferred to another 96-well plate, and purified water (50 μL) and 50% aqueous solution (100 μL) of Protein Assay Dye Reagent (available from Bio-Rad Laboratories, Inc.; catalogue No. 500-600) were added thereto. […] The absorbance of a reaction mixture prepared in the same manner as mentioned above, except that a DMSO solution containing no sample was used as a control value; and the absorbance of a reaction mixture prepared in the same manner as mentioned above, except that a 1 mM aqueous EDTA solution (50 μL) was used in place of 20 mM aqueous calcium chloride, was used as a blank value.

Sequence of m-calpain (derived from porcine kidney) (P43367 whole entry): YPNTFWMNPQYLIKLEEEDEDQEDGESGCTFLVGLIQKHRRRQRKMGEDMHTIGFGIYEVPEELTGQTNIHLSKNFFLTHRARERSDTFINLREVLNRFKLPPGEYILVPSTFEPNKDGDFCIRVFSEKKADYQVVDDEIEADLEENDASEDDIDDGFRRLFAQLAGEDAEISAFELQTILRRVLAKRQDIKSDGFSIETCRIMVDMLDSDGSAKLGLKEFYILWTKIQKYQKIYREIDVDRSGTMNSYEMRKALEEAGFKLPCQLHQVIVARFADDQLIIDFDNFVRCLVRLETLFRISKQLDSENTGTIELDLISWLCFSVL
Sequence of m-calpain (derived from porcine kidney) (P04574 whole entry, further chain): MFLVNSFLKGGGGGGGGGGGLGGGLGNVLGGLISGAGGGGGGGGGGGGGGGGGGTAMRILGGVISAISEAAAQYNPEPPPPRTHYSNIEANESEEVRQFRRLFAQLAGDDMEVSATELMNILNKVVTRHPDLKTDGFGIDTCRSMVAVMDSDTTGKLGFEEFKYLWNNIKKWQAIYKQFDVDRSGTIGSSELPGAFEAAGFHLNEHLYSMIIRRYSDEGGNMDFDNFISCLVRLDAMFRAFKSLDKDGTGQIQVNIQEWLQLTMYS

A word on the melting point: it is the temperature of the solid-liquid transition. The molecule `COCCOC(=O)N[C@@H](CC(C)C)C(=O)N[C@@H](CCc1ccccc1)C(=O)C(=O)NC1CC1` [Compound 15, ((1S)-1-((((1S)-2,3-Dioxo-3-cyclopropylamino-1-(phenylethyl)propyl)amino)carbonyl)-3-methylbutyl)carbamic acid 2-methoxyethyl ester] gave a melting point of 109.7 to 111.1 °C. One may read the IC50 as the midpoint of a concentration-inhibition curve. Molecule `COCCOCCOCCOCCOC(=O)N[C@@H](CC(C)C)C(=O)N[C@@H](Cc1ccccc1)C(=O)C(=O)NC1CC1` [Compound 19, ((1S)-1-((((1S)-1-Benzyl-2,3-dioxo-3-(cyclopropylamino)propyl)amino)carbonyl)-3-methylbutyl)carbamic acid 11-methoxy-3,6,9-trioxaundecanyl ester] came in with a melting point of 97.5 to 98.5 °C. For the same molecule, the IC50 in data set [1] worked out at 170 nM. Regarding `CCNC(=O)C(=O)[C@H](CCc1ccccc1)NC(=O)[C@H](CC(C)C)NC(=O)O[C@H]1CCOC1` [Compound 14, ((1S)-1-((((1S)-2,3-Dioxo-3-ethylamino-1-(phenylethyl)propyl)amino)carbonyl)-3-methylbutyl)carbamic acid (3S)-tetrahydrofuran-3-yl ester], the melting point was in the range of 111.9 to 114.5 °C. Still for that read-out and setting: the figure for `CC(C)C[C@H](NC(=O)OC1CCOCC1)C(=O)N[C@@H](Cc1ccccc1)C(=O)C(=O)NC1CC1` [Compound 6, ((1S)-1-((((1S)-1-Benzyl-3-cyclopropylamino-2,3-dioxopropyl)amino)carbonyl)-3-methylbutyl)carbamic acid tetrahydro-4H-pyran-4-yl ester] is 137 to 138.2 °C; for `CCNC(=O)C(=O)[C@H](Cc1ccccc1)NC(=O)[C@H](CC(C)C)NC(=O)OCCOC` [Compound 1, ((1S)-1-((((1S)-1-Benzyl-2,3-dioxo-3-(ethylamino)propyl)amino)carbonyl)-3-methylbutyl) carbamic acid 2-methoxyethyl ester] it is 138 to 138.3 °C; for `COCCOC(=O)N[C@@H](CC(C)C)C(=O)N[C@@H](Cc1ccccc1)C(=O)C(=O)NC1Cc2ccccc2C1` [Compound 11, ((1S)-1-((((1S)-1-Benzyl-2,3-dioxo-3-(2-indanylamino)propyl)amino)carbonyl)-3-methylbutyl)carbamic acid 2-methoxyethyl ester] it is 141.9 to 143.5 °C. As for `CCNC(=O)C(=O)[C@H](Cc1ccccc1)NC(=O)[C@H](CC(C)C)NC(=O)OC1CCOCC1` [Compound 3, ((1S)-1-((((1S)-1-Benzyl-2,3-dioxo-3-(ethylamino)propyl)amino)carbonyl)-3-methylbutyl)carbamic acid tetrahydro-4H-pyran-4-yl ester], the melting point lay within 140 to 141.8 °C. Still for that read-out and setting: to `COCCNC(=O)C(=O)[C@H](Cc1ccccc1)NC(=O)[C@H](CC(C)C)NC(=O)OCCOC` [Compound 12, ((1S)-1-((((1S)-1-Benzyl-2,3-dioxo-3-(2-methoxyethylamino)propyl)amino)carbonyl)-3-methylbutyl) carbamic acid 2-methoxyethyl ester] belongs 127 to 127.9 °C; to `CCCNC(=O)C(=O)[C@H](Cc1ccccc1)NC(=O)[C@H](CC(C)C)NC(=O)OCCOC` [Compound 7, ((1S)-1-((((1S)-1-Benzyl-2,3-dioxo-3-(propylamino)propyl)amino)carbonyl)-3-methylbutyl) carbamic acid 2-methoxyethyl ester], 108.8 to 109.9 °C. The molecule `CC(C)C[C@H](NC(=O)O[C@H]1CCOC1)C(=O)N[C@@H](CCc1ccccc1)C(=O)C(=O)NC1CC1` [Compound 16] had a melting point of 115.8 to 116.2 °C.

`CC(C)C[C@H](NC(=O)O[C@H]1CCOC1)C(=O)N[C@@H](Cc1ccccc1)C(=O)C(=O)NC1CC1` [Compound 5, ((1S)-1-((((1S)-1-Benzyl-3-(cyclopropylamino)-2,3-dioxopropyl)amino)carbonyl)-3-methylbutyl)carbamic acid (3S)-tetrahydrofuran-3-yl ester] displayed a melting point of 169.2 to 170.5 °C. The same measure, in the same setting: the figure for `COCCOC(=O)N[C@@H](CC(C)C)C(=O)N[C@@H](Cc1ccccc1)C(=O)C(=O)NCC(F)(F)F` [Compound 10, ((1S)-1-((((1S)-1-Benzyl-2,3-dioxo-3-(2,2,2-trifluoroethylamino)propyl)amino)carbonyl)-3-methylbutyl) carbamic acid 2-methoxyethyl ester] is 152.5 to 153.9 °C. On the same count and under the same terms, to `CCNC(=O)C(=O)[C@H](Cc1ccccc1)NC(=O)[C@H](CC(C)C)NC(=O)O[C@H]1CCOC1` [Compound 2, ((1S)-1-((((1S)-1-Benzyl-2,3-dioxo-3-(ethylamino)propyl)amino)carbonyl)-3-methylbutyl)carbamic acid (3S)-tetrahydrofuran-3-yl ester] belongs 158.9 to 160.7 °C; to `COCCOC(=O)N[C@@H](CC(C)C)C(=O)N[C@@H](Cc1ccccc1)C(=O)C(=O)NC1CC1` [Compound 4, ((1S)-1-((((1S)-1-Benzyl-2,3-dioxo-3-(cyclopropylamino)propyl)amino)carbonyl)-3-methylbutyl)carbamic acid 2-methoxyethyl ester], 112.4 to 113.5 °C. The molecule `COCCOC(=O)N[C@@H](CC(C)C)C(=O)N[C@@H](Cc1ccccc1)C(=O)C(=O)NC1CCC1` [Compound 8, ((1S)-1-((((1S)-1-Benzyl-2,3-dioxo-3-(cyclobutylamino)propyl)amino)carbonyl)-3-methylbutyl) carbamic acid 2-methoxyethyl ester] showed a melting point of 114.2 to 115.3 °C. Molecule `CCNC(=O)C(=O)[C@H](CCc1ccccc1)NC(=O)[C@H](CC(C)C)NC(=O)OCCOC` [Compound 13, ((1S)-1-((((1S)-2,3-Dioxo-3-ethylamino-1-(phenylethyl)propyl)amino)carbonyl)-3-methylbutyl)carbamic acid 2-methoxyethyl ester] registered a melting point of 119.1 to 120.4 °C.

The molecule `COCCOCCOC(=O)N[C@@H](CC(C)C)C(=O)N[C@@H](CC(C)C)C(=O)C(=O)NCCOc1ccccc1` [Compound 22, ((1S)-1-((((1S)-2,3-Dioxo-1-(2-methylpropyl)-3-(2-phenoxyethyl)aminopropyl)amino)carbonyl)-3-methylbutyl) carbamic acid 5-methoxy-3-oxapentyl ester] yielded a melting point of 53.3 to 54.1 °C.

`CCCCNC(=O)C(=O)[C@H](Cc1ccccc1)NC(=O)[C@H](CC(C)C)NC(=O)OCCOC` [Compound 9, ((1S)-1-((((1S)-1-Benzyl-3-butylamino-2,3-dioxopropyl)amino)carbonyl)-3-methylbutyl) carbamic acid 2-methoxyethyl ester] came in with a melting point of 94 to 95.2 °C. The molecule `COCCOCCOCCOCCOCCOC(=O)N[C@@H](CC(C)C)C(=O)N[C@@H](Cc1ccccc1)C(=O)C(=O)NC1CC1` [Compound 20, ((1S)-1-((((1S)-1-Benzyl-2,3-dioxo-3-(cyclopropylamino)propyl)amino)carbonyl)-3-methylbutyl)carbamic acid 14-methoxy-3,6,9,12-tetraoxatetradecanyl ester] had a melting point of 98.5 to 99.9 °C. In data set [1], the IC50 is 190 nM. `COCCOC(=O)N[C@@H](CC(C)C)C(=O)N[C@@H](CC(C)C)C(=O)C(=O)NCCOc1ccccc1` [Compound 21, ((1S)-1-((((1S)-2,3-Dioxo-1-(2-methylpropyl)-3-(2-phenoxyethyl)aminopropyl)amino)carbonyl)-3-methylbutyl) carbamic acid 2-methoxyethyl ester] returned a melting point of 99.7 to 100.5 °C.
